# Experimental data as given in patent publication US20230241164A1, “C-Type Natriuretic Peptides and Methods Thereof in Treating Cancer” (PHARMAIN CORPORATION, priority 2020, published 2023).
# “And” between values parts separate entries of the source, which are not always exact repeats. Equal values may be shown once. Numbered stars: 1 amine (or outer) side, 2 acyl side, 3 side chain; on linkers, the order of the positions; unused ones are H or OH. Bridge positions count the residues as written; N and C are the ends. Square brackets hold non-standard residues; d marks the D form. Peptide text beside a SMILES is read from it. * marks the point of attachment. C18 diacid = O=C(O)CCCCCCCCCCCCCCCCC(=O)*; γGlu = O=C(O)[C@H](CCC(=O)[*:2])N[*:1]; Aad = N[C@@H](CCCC(=O)O)C(=O)O; AEEA = NCCOCCOCC(=O)O
# Key:
# [1] = system: TRAMPC-1 mouse prostate cancer cells; experiment: Prostate cancer subcutaneous model, treatment from day 19, tumor size; assay type: in vivo, mice
# Protocol: (§1) In this study, male C57BL/6J mice (6 weeks old, male, n=10) were purchased from Kyodo (Saga, Japan) and maintained under a 12-hour light/12-hour dark cycle with free access to water and standard mouse diet (MF diet; Oriental Yeast Co., Ltd. Tokyo Japan). Mice were implanted with TRAMPC-1 mouse prostate cancer cells (1,000,000 cells/mouse) (ATCC, Manassas, Va.) in the subcutaneous. From the 19th day (averaged tumor size was 70 mm3), mice were treated with a bolus dose of long acting CNP derivative or dCNP (described in Example 1) (0.3 mg/kg s.c. or 1.0 mg/kg s.c.) in buffer [Methionine 100 mM (Tokyo Chemical Industry Co., Ltd., Tokyo, Japan); Sucrose 100 mM (Tokyo Chemical Industry Co., Ltd.); Histidine 50 mM (Tokyo Chemical Industry Co., Ltd.); in H2O (Otsuka Pharmaceutical. Tokushima, Japan)], Docetaxel (DTX1 mg/kg i.p.) in Saline, all with or without anti-CD8 (5 mg/Kg i.p.; BioX cell; West Lebanon, N.H.) or Phosphate buffered saline (PBS) alone via i.p. All Docetaxel groups were used as mechanism of action comparator chemotherapeutic agent. Mice were treated total of two weeks (5 days of once daily, 2 days of rest, 5 days of once-daily treatment and 2 days rest). Anti-CD8 Ab was administered every 3 days starting day 19th. Tumor sizes were measured with caliper.
# [2] = system: TRAMPC-1 mouse prostate cancer cells; experiment: Prostate cancer subcutaneous model, treatment from day 6, tumor size; assay type: in vivo, mice; settings: Anti-CD8 Ab 5 mg/kg i.p.
# Protocol: In this study, male C57BL/6J mice (6 weeks old, male, n=10) were purchased from Kyodo (Saga, Japan) and maintained under a 12-hour light/12-hour dark cycle with free access to water and standard mouse diet (MF diet; Oriental Yeast Co., Ltd. Tokyo Japan). Mice were implanted with TRAMPC-1 mouse prostate cancer cells (1,000,000 cells/mouse) (ATCC, Manassas, Va.) in the subcutaneous. From the 6th day (early stage of tumor growth), mice were treated with a bolus dose of dCNP (described in Example 1) (0.3 mg/kg s.c. or 1.0 mg/kg s.c.) with or without Anti-CD8 antibody (a-CD8; 5 mg/Kg i.p.; BioX cells, West Lebanon, N.H.) in buffer containing Methionine 100 mM (Tokyo Chemical Industry Co., Ltd., Tokyo, Japan); Sucrose 100 mM (Tokyo Chemical Industry Co., Ltd.); Histidine 50 mM (Tokyo Chemical Industry Co., Ltd.); in H2O (Otsuka Pharmaceutical, Tokushima, Japan)], Docetaxel (1 mg/kg i.p.) in Saline with or without Anti-CD8 Ab (5 mg/kg i.p.) as reference control, and or with Phosphate buffered saline (PBS) alone via i.p. as control. Mice were treated total of 14 days (5 days of once daily, 2 days of rest, 5 days of once-daily treatment and 2 days rest). Anti-CD8 Ab (a-CD8) was administered on −2, 1, 4, 7, 10 and 13th day. Tumor sizes were measured with caliper. Statistical analysis was performed by Student t-tests by using GraphPad Prism *P<0.0001 vs. Control or a-CD8 group (n=10). […]
# [3] = system: TRAMPC-1 mouse prostate cancer cells; experiment: Gene expression within prostate tumor (quantitative RT-PCR); assay type: in vivo, mice; settings: tumor harvested at day 30
# Protocol: as §1, with “Pharmaceutical,” for “Pharmaceutical.”, “(DTX 1” for “(DTX1”, “for 2” for “total of two”, “was harvested at day 30 and extracted RNA, then Quantitative RT-PCR was performed; error bars are SEM. Statistical analysis was performed by Student t-tests by using GraphPad Prism *P<0.05 or **P<0.01 vs. Control group (n=3-6).” for “sizes were measured with caliper.”
# [4] = Pharmacokinetic study of dCNP-s1 and dCNP-s2: plasma CNP after subcutaneous bolus in CD-1 mice; assay type: in vivo; settings: subcutaneous bolus 2.0 mg/Kg, FIG. 30
# Protocol: For this pharmacokinetic study, all animals (mice) for this study were maintained under a 12-hour light/12-hour dark cycle with free access to water and standard mouse diet (Lab Pico Rodent #5053; Animal Specialties, Woodburn, Oreg.). Male CD-1 mice (6-8 weeks old; Charles River, Hollister, Calif.) were treated with 2.0 mg/Kg of CNP derivative s1 (dCNP-s1; PharmaIN Corp, Bothell, Wash.), and CNP derivative s2 (dCNP-s2: PharmaIN Corp, Bothell, Wash.) via subcutaneous bolus administration between the shoulder blades.
# [5] = Immune activation in normal healthy mice (blood FACS, spleen gene expression); assay type: in vivo; settings: normal healthy mice, 0.1, 0.3, 1.0 mg/kg s.c. day 1-5
# Protocol: In this study, male C57BL/6J mice (6 weeks old n=3) were purchased from Kyodo (Saga, Japan) and maintained under a 12-hour light/12-hour dark cycle with free access to water and standard mouse diet (MF diet; Oriental Yeast Co., Ltd. Tokyo Japan). Mice were treated with a bolus dose of 0, 0.1, 0.3, and 1.0 mg/kg CNP derivative or dCNP (described in Example 1) in buffer (Methionine 100 mM (Tokyo Chemical Industry Co., Ltd., Tokyo, Japan), sucrose 100 mM (Tokyo Chemical Industry Co., Ltd.), histidine 50 mM (Tokyo Chemical Industry Co., Ltd.); in H2O (Otsuka Pharmaceutical, Tokushima, Japan)) or buffer alone (for control group). Administration is by bolus subcutaneous injection under isoflurane anesthesia, at day 1, 2, 3, 4, and 5. Blood was harvested on day 5 under the isoflurane vapor and plasma were obtained by added EDTA and red blood cells were removed by pharma lyse (BD, Franklin Lakes, N.J.). Cells were analyzed by FACS (BD, Franklin lakes, NJ). The spleen was harvested on day 5 under isoflurane vapor, then placed in the Tri reagent (Cosmobio, Tokyo, Japan) for further analysis. Statistical analysis was performed by Student t-tests by using GraphPad Prism *P<0.05 vs. Control. **P<0.01 vs Control (n=5).
# [6] = Pharmacokinetic study: plasma CNP (ELISA) after subcutaneous bolus in CD-1 mice; settings: subcutaneous 2.0 mg/Kg, FIG. 1A
# Protocol: All test articles were formulated or dissolved in 100 mM sorbitol, 100 mM methionine, 20 mM histidine, pH 6.0. […] Blood samples were processed in K2EDTA tubes to obtain plasma. Plasma was analyzed by commercially available CNP ELISA kit from Phoenix Pharmaceuticals (cat #EKE-012-03). […] [SEQ ID NO. 6]. […] The details of the polymer are described in Castillo et al., Pharm. Res., (2012) 29(1); p 306-18, herein incorporated by reference in its entirety.
# Error bars represent standard deviation of n=5 plasma samples.
# [7] = species not stated; cited from earlier work
# [8] = bolus injection, healthy human volunteers; cited from earlier work
smiles,measurement,setting,value
CC(=O)O[C@@]12CO[C@@H]1C[C@H](O)[C@@]1(C)C(=O)[C@H](O)C3=C(C)[C@@H](OC(=O)[C@H](O)[C@@H](NC(=O)OC(C)(C)C)c4ccccc4)C[C@@](O)([C@@H](OC(=O)c4ccccc4)[C@H]21)C3(C)C [Docetaxel],anti-tumor effect with anti-CD8 antibody,[1]; anti-CD8 5 mg/Kg i.p.,could not be neutralized by Anti-CD8
same,tumor growth suppressing effect in the presence of Anti-CD8 antibody,[2],remained
same,Ang 2 gene expression within the prostate tumor,[3],not
same,TGFβ gene expression within the prostate tumor,[3],not
same,alpha-smooth muscle actin (α-SMA) gene expression within the prostate tumor,[3],not
CC[C@H](C)[C@@H]1NC(=O)[C@H](CCCNC(=N)N)NC(=O)[C@H](CC(=O)O)NC(=O)[C@H](CC(C)C)NC(=O)[C@H](CCCCN)NC(=O)[C@H](CC(C)C)NC(=O)CNC(=O)[C@H](Cc2ccccc2)NC(=O)[C@@H](NC(=O)CNC(=O)COCCOCCNC(=O)COCCOCCNC(=O)CCCCCCCCCCCCCCCCC(=O)O)CSSC[C@@H](C(=O)O)NC(=O)CNC(=O)[C@H](CC(C)C)NC(=O)CNC(=O)[C@H](CO)NC(=O)[C@H](CCCC(N)=O)NC(=O)[C@H](CO)NC(=O)CNC1=O [dCNP-s1] ({C18 diacid-AEEA-AEEA}-GCFGLKLDRIGS[Aad](NH2)SGLGC-OH; disulfide 2-18),blood level of CNP relative to native CNP at similar weight/Kg dose,[4],10 fold
CC[C@H](C)[C@@H]1NC(=O)[C@H](CCCNC(=N)N)NC(=O)[C@H](CC(=O)O)NC(=O)[C@H](CC(C)C)NC(=O)[C@H](CCCCN)NC(=O)[C@H](CC(C)C)NC(=O)CNC(=O)[C@H](Cc2ccccc2)NC(=O)[C@@H](NC(=O)CNC(=O)COCCOCCNC(=O)COCCOCCNC(=O)CC[C@H](NC(=O)CCCCCCCCCCCCCCCCC(=O)O)C(=O)O)CSSC[C@@H](C(=O)O)NC(=O)CNC(=O)[C@H](CC(C)C)NC(=O)CNC(=O)[C@H](CO)NC(=O)[C@H](CCCC(N)=O)NC(=O)[C@H](CO)NC(=O)CNC1=O [dCNP-s2] ({C18 diacid-γGlu-AEEA-AEEA}-GCFGLKLDRIGS[Aad](NH2)SGLGC-OH; disulfide 2-18),blood level of CNP relative to native CNP at similar weight/Kg dose,[4],10 fold
CCCCCCCCCCCCCCCCCC(=O)N[C@@H](CCCCN)C(=O)N[C@@H](CCCCN)C(=O)N[C@@H](CCCCN)C(=O)N[C@@H](CCCCN)C(=O)NCC(=O)NCC(=O)NCC(=O)NCC(=O)N[C@@H](CC(C)C)C(=O)N[C@@H](CO)C(=O)N[C@@H](CCCCN)C(=O)NCC(=O)N[C@H]1CSSC[C@@H](C(=O)O)NC(=O)CNC(=O)[C@H](CC(C)C)NC(=O)CNC(=O)[C@H](CO)NC(=O)[C@H](CCSC)NC(=O)[C@H](CO)NC(=O)CNC(=O)[C@H]([C@@H](C)CC)NC(=O)[C@H](CCCNC(=N)N)NC(=O)[C@H](CC(=O)O)NC(=O)[C@H](CC(C)C)NC(=O)[C@H](CCCCN)NC(=O)[C@H](CC(C)C)NC(=O)CNC(=O)[C@H](Cc2ccccc2)NC1=O [dCNP],cytotoxic (CD8) T-cells in blood,[5],increase
same,lethality,[1]; TRAMPC-1 tumor bearing mice,less lethal than cytotoxic chemotherapeutic agent (Docetaxel)
CC[C@H](C)[C@@H]1NC(=O)[C@H](CCCNC(=N)N)NC(=O)[C@H](CC(=O)O)NC(=O)[C@H](CC(C)C)NC(=O)[C@H](CCCCN)NC(=O)[C@H](CC(C)C)NC(=O)CNC(=O)[C@H](Cc2ccccc2)NC(=O)[C@@H](NC(=O)CNC(=O)[C@H](CCCCN)NC(=O)[C@H](CO)NC(=O)[C@H](CC(C)C)NC(=O)CN)CSSC[C@@H](C(=O)O)NC(=O)CNC(=O)[C@H](CC(C)C)NC(=O)CNC(=O)[C@H](CO)NC(=O)[C@H](CCSC)NC(=O)[C@H](CO)NC(=O)CNC1=O [native CNP],plasma CNP,[6],low plasma level
same,half-life,[7],2 to 13 min and 2 min
same,heart rate,[8],significant increase
same,systolic and diastolic blood pressure,[8],significant decrease
